Consider 1 compound from ChEMBL document CHEMBL3868610, “Novel bicyclo[3.1.0]hexane analogs as antagonists of metabotropic glutamate 2/3 receptors for the treatment of depression” (Bioorg Med Chem Lett, 2016).

Structures are written as SMILES. Activity calls are given as the source filed them. The calls are words filed in the database; no cut-off is given here.

Data set [1] addresses Metabotropic glutamate receptor 7 (Homo sapiens, UniProt Q14831). In words: Antagonist activity at recombinant human mGlu7 receptor expressed in hamster AV12 cells co-expressing human EAAT1/Galpha1s assessed as inhibition of Ca2+ flux by Fluo-3-AM dye based FLIPR assay. The format is functional, cell-based. For orientation: Calcium assays in cells follow changes in intracellular calcium, usually with a dye or a luminescent sensor.

A short description of data set [2]: Antidepressant activity in rat assessed as increase in wakefulness at 3 to 10 mg/kg, ip.
Data set [3] concerns the target hERG (KCNH2) (Homo sapiens, UniProt Q12809). In words: Displacement of [3H]-Astemizole from human ERG at 100 uM by membrane binding assay. The note with it: membranes with human ERG, probe [3H]-Astemizole. Background: Loss of bound radioactivity is the signal in a displacement assay; it reports binding, not function.
Data set [4] in a line: Permeability from apical side to basolateral side in MDCK cells at 20 uM. The format is ADME, cell-based, Canis lupus familiaris. The conditions noted are these: dog.
The nature of data set [5]: Unbound fraction in mouse. The conditions noted are these: in vivo. The format is ADME, organism-based.
Data set [6] in a line: Antidepressant activity in ip dosed rat EEG model assessed as accumulated wake time measured over 7 hrs relative to control. The format is functional, organism-based.
Data set [7] concerns the target CYP2C9 (Homo sapiens, UniProt P11712). In words: Inhibition of human CYP2C9 at 10 uM. Format: ADME.
A short description of data set [8]: Unbound fraction in human plasma at 1 uM. Format: ADME, cell-free.
A short description of data set [9]: Cmax in rat at 5 mg/kg, po. Format: ADME, organism-based. Also noted: dose 5 mg/kg, route oral. The conditions noted are these: in vivo.
Data set [10] can be described thus: Antidepressant activity in ip dosed NIH Swiss Webster mouse assessed as reduction in immobility time administered 30 mins prior to evaluation measured on the last 4 mins of the 6 mins observation time by forced swim test. The format is functional, organism-based.
For data set [11], the target named is Metabotropic glutamate receptor 2 (Homo sapiens, UniProt Q14416). In words: Antagonist activity at recombinant human mGlu2 receptor expressed in hamster AV12 cells assessed as inhibition of DCG-4-inhibited forskolin-stimulated cAMP formation up to 25 uM after 20 min by HTRF assay relative to control. Format: functional, cell-based.
Data set [12] in a line: AUC (0 to 24 hrs) in rat at 1 mg/kg, iv. Format: ADME, organism-based. The arrangement: dose 1 mg/kg, time < 24 hr, route intravenous. The note with it: in vivo.
A short description of data set [13]: Unbound fraction in rat plasma at 1 uM. Format: ADME, cell-free.
Data set [14] in a line: Ratio of drug level in brain to plasma in mouse at 10 mg/kg, ip after 30 mins. Format: ADME, organism-based. The conditions noted are these: read-out: BPR.
Data set [15] concerns Rattus norvegicus. In words: Toxicity in rat assessed as increase in locomotive activity at 3 to 10 mg/kg, ip. Format: organism-based. The note with it: in vivo.
Data set [16] concerns the target CYP2D6 (Homo sapiens, UniProt P10635). In words: Inhibition of human CYP2D6 at 10 uM. Format: ADME.
Data set [17] is described as follows: Antidepressant activity in NIH Swiss Webster mouse assessed as immobility time at 0.3 mg/kg, ip administered 30 mins prior to test measured during last 4 mins of the 6 mins observation time by forced swim test (reference value: 142 sec). Format: functional, organism-based.
The target in data set [18] is Metabotropic glutamate receptor 3 (Homo sapiens, UniProt Q14832). In words: Antagonist activity at recombinant human mGlu3 receptor expressed in hamster AV12 cells co-expressing human EAAT1 assessed as reduction of DCG-4-inhibited forskolin-stimulated cAMP formation after 20 mins by HTRF assay. The format is functional, cell-based.
Data set [19] can be described thus: Antidepressant activity in rat EEG model assessed as accumulated wake time at 10 mg/kg, ip measured over 7 hrs relative to control. The format is functional, organism-based.
A short description of data set [20]: Drug metabolism in monkey microsomes at 4 uM after 30 mins. Format: ADME, Macaca mulatta, Microsome. The note with it: rhesus monkey, read-out: Drug metabolism.

Sequence of CYP2C9 (P11712 whole entry): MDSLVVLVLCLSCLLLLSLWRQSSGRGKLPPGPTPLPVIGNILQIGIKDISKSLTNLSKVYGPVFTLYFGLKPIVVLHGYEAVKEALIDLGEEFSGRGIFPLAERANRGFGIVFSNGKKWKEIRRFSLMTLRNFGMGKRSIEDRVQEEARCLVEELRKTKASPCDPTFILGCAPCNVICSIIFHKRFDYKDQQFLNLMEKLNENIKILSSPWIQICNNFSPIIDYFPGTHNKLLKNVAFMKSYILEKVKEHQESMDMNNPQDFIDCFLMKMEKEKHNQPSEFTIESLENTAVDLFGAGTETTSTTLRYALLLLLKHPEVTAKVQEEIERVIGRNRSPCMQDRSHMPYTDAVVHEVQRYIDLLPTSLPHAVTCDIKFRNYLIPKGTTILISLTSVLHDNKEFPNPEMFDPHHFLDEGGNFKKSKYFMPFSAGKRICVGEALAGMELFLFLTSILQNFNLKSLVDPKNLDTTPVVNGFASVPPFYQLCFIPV
Sequence of Metabotropic glutamate receptor 7 (Q14831 whole entry): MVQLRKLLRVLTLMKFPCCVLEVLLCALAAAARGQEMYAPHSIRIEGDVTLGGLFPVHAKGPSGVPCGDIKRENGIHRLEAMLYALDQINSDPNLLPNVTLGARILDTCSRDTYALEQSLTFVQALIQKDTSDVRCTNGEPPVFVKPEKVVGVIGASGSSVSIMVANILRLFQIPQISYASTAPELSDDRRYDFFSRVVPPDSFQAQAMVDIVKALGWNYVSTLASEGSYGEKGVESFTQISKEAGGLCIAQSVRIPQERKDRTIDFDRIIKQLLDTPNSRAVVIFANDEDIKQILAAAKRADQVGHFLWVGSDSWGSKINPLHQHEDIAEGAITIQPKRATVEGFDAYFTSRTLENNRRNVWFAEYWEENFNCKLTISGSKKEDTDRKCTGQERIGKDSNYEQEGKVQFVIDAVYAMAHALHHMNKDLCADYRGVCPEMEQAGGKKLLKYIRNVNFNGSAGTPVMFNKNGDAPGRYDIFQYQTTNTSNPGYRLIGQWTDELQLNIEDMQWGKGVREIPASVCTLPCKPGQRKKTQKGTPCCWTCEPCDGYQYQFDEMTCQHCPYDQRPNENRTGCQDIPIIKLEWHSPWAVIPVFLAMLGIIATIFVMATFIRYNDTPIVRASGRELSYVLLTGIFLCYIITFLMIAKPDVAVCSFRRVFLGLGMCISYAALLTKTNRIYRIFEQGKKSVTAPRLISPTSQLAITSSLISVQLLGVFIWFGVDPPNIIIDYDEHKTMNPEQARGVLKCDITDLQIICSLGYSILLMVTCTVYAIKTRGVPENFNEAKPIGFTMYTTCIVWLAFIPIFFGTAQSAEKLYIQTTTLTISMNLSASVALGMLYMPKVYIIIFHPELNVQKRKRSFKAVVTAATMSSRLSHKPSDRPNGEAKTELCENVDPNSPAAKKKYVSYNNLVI
Sequence of Metabotropic glutamate receptor 2 (Q14416 19-872 limits assumed): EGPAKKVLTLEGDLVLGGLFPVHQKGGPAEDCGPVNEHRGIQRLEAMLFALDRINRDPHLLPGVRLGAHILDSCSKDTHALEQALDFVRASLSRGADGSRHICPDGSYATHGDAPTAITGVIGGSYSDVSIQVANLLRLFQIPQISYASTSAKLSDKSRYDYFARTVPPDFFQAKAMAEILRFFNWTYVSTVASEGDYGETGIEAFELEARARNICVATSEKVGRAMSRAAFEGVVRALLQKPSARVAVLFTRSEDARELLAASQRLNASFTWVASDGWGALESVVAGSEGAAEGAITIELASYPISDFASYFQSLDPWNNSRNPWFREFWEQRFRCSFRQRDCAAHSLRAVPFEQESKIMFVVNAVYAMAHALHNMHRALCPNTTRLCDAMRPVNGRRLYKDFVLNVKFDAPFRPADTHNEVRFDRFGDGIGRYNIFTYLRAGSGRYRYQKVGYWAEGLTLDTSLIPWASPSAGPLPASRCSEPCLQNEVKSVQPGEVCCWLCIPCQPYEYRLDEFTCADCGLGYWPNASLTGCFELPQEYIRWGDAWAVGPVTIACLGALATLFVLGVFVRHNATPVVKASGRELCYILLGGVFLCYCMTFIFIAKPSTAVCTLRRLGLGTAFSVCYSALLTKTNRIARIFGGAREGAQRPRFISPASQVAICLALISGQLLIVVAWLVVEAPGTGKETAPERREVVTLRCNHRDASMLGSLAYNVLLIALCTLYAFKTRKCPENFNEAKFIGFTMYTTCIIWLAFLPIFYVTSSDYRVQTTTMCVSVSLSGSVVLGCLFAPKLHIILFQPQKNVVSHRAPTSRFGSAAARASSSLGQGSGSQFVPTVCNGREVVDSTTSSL
Sequence of hERG (KCNH2) (Q12809 whole entry): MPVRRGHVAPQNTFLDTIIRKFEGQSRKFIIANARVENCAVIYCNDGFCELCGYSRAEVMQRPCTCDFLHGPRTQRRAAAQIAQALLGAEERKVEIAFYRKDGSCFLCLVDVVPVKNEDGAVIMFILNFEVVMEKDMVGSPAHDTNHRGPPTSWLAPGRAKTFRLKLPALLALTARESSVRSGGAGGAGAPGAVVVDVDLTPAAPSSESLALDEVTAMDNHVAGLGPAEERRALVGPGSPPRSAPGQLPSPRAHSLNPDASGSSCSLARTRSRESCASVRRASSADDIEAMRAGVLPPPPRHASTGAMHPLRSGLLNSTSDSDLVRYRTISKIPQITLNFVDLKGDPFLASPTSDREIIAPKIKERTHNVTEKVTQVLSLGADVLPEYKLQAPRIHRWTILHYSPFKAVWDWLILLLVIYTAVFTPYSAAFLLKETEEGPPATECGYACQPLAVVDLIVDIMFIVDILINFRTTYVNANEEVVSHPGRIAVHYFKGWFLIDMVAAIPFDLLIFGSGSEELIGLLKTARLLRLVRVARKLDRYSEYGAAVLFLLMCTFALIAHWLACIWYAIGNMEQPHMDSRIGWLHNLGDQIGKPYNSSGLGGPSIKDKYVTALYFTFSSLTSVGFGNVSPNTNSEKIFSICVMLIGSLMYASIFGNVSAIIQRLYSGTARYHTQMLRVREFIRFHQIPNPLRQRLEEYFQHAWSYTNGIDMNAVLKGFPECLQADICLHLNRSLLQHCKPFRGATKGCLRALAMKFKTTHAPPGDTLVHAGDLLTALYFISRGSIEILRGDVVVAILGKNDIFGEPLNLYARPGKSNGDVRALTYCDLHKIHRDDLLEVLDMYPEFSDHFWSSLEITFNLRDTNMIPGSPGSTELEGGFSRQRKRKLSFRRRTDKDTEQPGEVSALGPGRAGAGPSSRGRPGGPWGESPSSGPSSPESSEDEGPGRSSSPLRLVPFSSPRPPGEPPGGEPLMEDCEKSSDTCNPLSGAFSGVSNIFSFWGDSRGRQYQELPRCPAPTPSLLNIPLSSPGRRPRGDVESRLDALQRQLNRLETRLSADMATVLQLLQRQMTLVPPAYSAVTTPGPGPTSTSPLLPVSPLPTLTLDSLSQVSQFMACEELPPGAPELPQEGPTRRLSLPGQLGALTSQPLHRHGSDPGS
Sequence of CYP2D6 (P10635 whole entry): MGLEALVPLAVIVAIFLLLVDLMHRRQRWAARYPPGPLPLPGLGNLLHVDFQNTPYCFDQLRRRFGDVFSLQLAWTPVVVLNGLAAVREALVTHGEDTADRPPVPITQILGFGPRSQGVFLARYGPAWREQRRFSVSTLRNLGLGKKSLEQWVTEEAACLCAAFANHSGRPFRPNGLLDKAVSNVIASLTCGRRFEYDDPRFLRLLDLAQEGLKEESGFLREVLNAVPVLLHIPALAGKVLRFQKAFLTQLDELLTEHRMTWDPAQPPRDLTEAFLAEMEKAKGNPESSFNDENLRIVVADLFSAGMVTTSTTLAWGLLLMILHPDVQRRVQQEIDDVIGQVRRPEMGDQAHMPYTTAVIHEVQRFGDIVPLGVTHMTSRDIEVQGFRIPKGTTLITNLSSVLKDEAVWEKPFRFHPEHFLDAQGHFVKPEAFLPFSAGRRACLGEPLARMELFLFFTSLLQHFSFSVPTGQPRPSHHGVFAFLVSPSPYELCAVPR

As for `N[C@]1(C(=O)O)[C@@H]2[C@@H](C(=O)O)[C@@H]2[C@H](O)[C@H]1OCc1ccc(Cl)c(Cl)c1`, the IC50 in data set [1] was 10.5 µM; in data set [18], 0.0461 µM. Besides, the outcome in [2] was Active. In addition, the inhibition at 100 µM in data set [3] is 13%. Moreover, the permeability in data set [4] turned out to be 2%. In addition, the unbound share (fraction unbound) in data set [5] is 0.56. Further, the figures for the TIME in data set [6], in [17] and in [19] were 2.18 h, 0.0394 h and 0.683 h, respectively. Moreover, the inhibition at 10 µM in data set [7] and in data set [16] was under 5% in each case. Also, the fraction unbound at 1 µM in data set [8] and in data set [13] was over 0.4 in each case. The compound further registered a Cmax in data set [9] of 0.262 µM. For the same compound, the ED60 in data set [10] is 0.72 mg/kg. In data set [10], the MED was found to be 1 mg/kg. Also, the inhibition result in [11] was “Active”. The compound also gave an AUC in [12] of 32.165 µM·h. In data set [14], the Kp at 0.5 h was found to be 0.015. Moreover, the Activity result in data set [15] is “Non-Toxic”. For the same compound, the Imax in [18] was over 94%. Moreover, the metabolised at 0.5 h, 4 µM in data set [20] was under 20%.

For orientation: IC50 means the midpoint of a concentration-inhibition curve. One may read the inhibition as how much of the control response was suppressed. For orientation: fraction unbound means the share of the substance not bound to proteins or other matrix. For orientation: Cmax means the peak of the concentration-time curve. The AUC is concentration integrated over time.
